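Test compounds were applied to cells in 96-well plates for 48 hours at 5 doses. GI50 marks 50% less growth. TGI is the concentration that stops growth completely.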
Assays:
Test in all cases: NCI anticancer screen, dose series, 48 h
HL-60(TB) leukemia = system: HL-60(TB) leukemia
K-562 leukemia = system: K-562 leukemia
A498 renal = system: A498 renal
SK-MEL-5 melanoma = system: SK-MEL-5 melanoma
786-0 renal = system: 786-0 renal
BT-549 breast = system: BT-549 breast
CAKI-1 renal = system: CAKI-1 renal
DU-145 prostate = system: DU-145 prostate
HS 578T breast = system: HS 578T breast
MDA-MB-231 breast = system: MDA-MB-231 breast
NCI-H226 lung = system: NCI-H226 lung
NCI/ADR-RES ovarian = system: NCI/ADR-RES ovarian
OVCAR-5 ovarian = system: OVCAR-5 ovarian
RXF 393 renal = system: RXF 393 renal
SF-295 CNS = system: SF-295 CNS
SF-539 CNS = system: SF-539 CNS
UO-31 renal = system: UO-31 renal

CNc1ccc(C(=O)CC(O)CCC(C)C2OC(=O)CC(O)CC(=O)CC(O)CC(O)CC(O)CC(O)CC3(O)CC(O)C(C(=O)NCCN4CCCCC4)C(CC(OC4OC(C)C(O)C(N)C4O)/C=C/C=C/C=C/C=C\C=C/C=C/C=C/C2C)O3)cc1 (stereo not drawn)
TGI (HL-60(TB) leukemia): > 100 µM | TGI (K-562 leukemia): > 100 µM

Cc1cn(-c2cc(F)cc(NC(=O)c3ccc(C)c(Nc4nccc(-c5cccnc5)n4)c3)c2)cn1
GI50 (A498 renal): > 100000 nM | TGI (A498 renal): > 100000 nM | GI50 (HL-60(TB) leukemia): > 100000 nM | TGI (HL-60(TB) leukemia): > 100 µM | GI50 (SK-MEL-5 melanoma): > 100 µM | TGI (SK-MEL-5 melanoma): > 100 µM

CN(C)c1ccc(-c2ccc(-c3ccc(C(=N)N)cc3)s2)cc1
GI50 (786-0 renal): 2210 nM | TGI (786-0 renal): 5.06 µM | GI50 (A498 renal): 15.5 nM | TGI (A498 renal): 86.6 nM | GI50 (BT-549 breast): 21 µM | TGI (BT-549 breast): 78.3 µM | GI50 (CAKI-1 renal): 1790 nM | TGI (CAKI-1 renal): 3.77 µM | GI50 (DU-145 prostate): 1800 nM | TGI (DU-145 prostate): 3.37 µM | GI50 (HL-60(TB) leukemia): 2030 nM | TGI (HL-60(TB) leukemia): 4.57 µM | GI50 (HS 578T breast): 2140 nM | TGI (HS 578T breast): 5.19 µM | GI50 (MDA-MB-231 breast): 1810 nM | TGI (MDA-MB-231 breast): 3.57 µM | GI50 (NCI-H226 lung): 32.6 µM | TGI (NCI-H226 lung): > 100 µM | GI50 (NCI/ADR-RES ovarian): 2350 nM | TGI (NCI/ADR-RES ovarian): 5.45 µM | GI50 (OVCAR-5 ovarian): 1730 nM | TGI (OVCAR-5 ovarian): 3.38 µM | GI50 (RXF 393 renal): 1810 nM | TGI (RXF 393 renal): 3.99 µM | GI50 (SF-295 CNS): 1900 nM | TGI (SF-295 CNS): 3.61 µM | GI50 (SF-539 CNS): 1760 nM | TGI (SF-539 CNS): 3.38 µM | GI50 (UO-31 renal): 1640 nM | TGI (UO-31 renal): 3.22 µM

From PubChem BioAssay (NCI)
